Legend:
[1] = tested on: WT hearts; experiment: Lactate dehydrogenase (LDH) release during I/R; set-up: species or system mouse
Method: Lactate dehydrogenase (LDH) release: In addition to the measurement of cardiac function, cardiac injury was assessed by measuring LDH release. Perfusion effluent was collected during the first 10 minutes to 20 minutes of I/R and stored at […] until analyzed. Total LDH levels were determined with the use of a CytoTox 96 assay (Promega). The data were expressed as absorbance units released per milliliter per minute per gram of heart wet tissues (Turnbull et al., Am J Physiol Heart Circ Physiol 290: […]-9, 2006; herein incorporated by reference).

[2] = tested on: rats fed either a high or normal sodium diet; conditions: cited from earlier work
[3] = tested on: Wistar rats fed HS diet; experiment: Blood pressure after i.v. SR141716A or CAPZ in conscious rats fed HS diet (Example I); type: in vivo, rat; conditions: 3 mg/kg iv
Method: Experiments were approved by the Institutional Animals Care and Use Committee. Experiments were performed using male Wistar rats (Charles River Laboratory, Wilmington, Mass.). Rats (6 weeks old) were housed in the animal facility for 1 week before the experiments. Rats were then randomly assigned to a normal-sodium (NS) diet (0.4% of Na+ by weight, Harlan Teklad) or HS (4% of Na+ by weight; Harlan Teklad) for 3 weeks. Rats drank water ad libitum throughout the experiment.
Surgical Preparation and MAP measurements: The rats were anesthetized with ketamine and xylazine (80 and 4 mg/kg intraperitoneally, respectively) for implantation of vascular catheters or with urethane ([…] intraperitoneally) throughout protocol 2. […]
Protocol 1: Rats fed a NS or HS diet were randomly assigned to 5 groups for intravenous injection of vehicle or MethA alone or in combination with SR141716A (a CB1 receptor antagonist), CAPZ (a VR1 receptor antagonist), or the combination of the 2 (n=5 to 8). Baseline MAP and its response to the aforementioned drugs were determined 3 hours after surgery when animals were fully awake and unrestrained as described previously. […]

[4] = tested on: male Wistar rats; experiment: Depressor effect of 20-HETE analog DSR given IV, with or without antagonists; type: in vivo, rat; conditions: DSR 1 mg/kg with CAPZ 3 mg/kg, RP67580 4 mg/kg or CGRP 8-37 3 mg/kg
[5] = tested on: hearts of WT mice; experiment: Langendorff perfused heart, ischemia and reperfusion (I/R) with OLDA, wild type; set-up: species or system mouse; conditions: antagonist 1×10^−6 M
Method: The following measurements were made on the two types of heart tissue: left ventricular end-diastolic pressure (LVEDP), left ventricular developed pressure (LVDP), coronary flow (CF), and left ventricular (LV) peak positive rate of pressure change/rate of time change (+dP/dt) were evaluated after I/R.

[6] = tested on: WT and TRPV1−/− hearts; experiment: SP and CGRP release from hearts subjected to PC (radioimmunoassay); set-up: species or system mouse; conditions: CAPZ 10^−6 M; in WT but not TRPV1−/− hearts
Method: Additional WT and TRPV1−/−hearts were treated the same as that of the PC group except that CAPZ (10^−6 M) was added to the solution. In the normal control group, WT and TRPV1−/−hearts were treated the same as that of the PC group except no deprivation of oxygen and glucose. The samples were purified and analyzed by radioimmunoassay. The assay was performed as recommended by the supplier. Commercially available rat CGRP and SP radioimmunoassay kits (Peninsula Laboratories Inc.) were used for determination of SP and CGRP release which was normalized by the heart weight.

[7] = tested on: renal tissues; experiment: Capsaicin-induced CGRP release from renal tissues; set-up: species or system rat; conditions: capsazepine 10 mmol/l; all groups
Excerpt: N¼5,_P<0.05 versus vehicle, capsazepine plus capsaicin and capsazepine; †P<0.001 versus capsaicin of control rats with a normal sodium diet (Con-NS) and capsaicin of control rats with a high sodium diet (Con-HS). Vehicle; capsaicin; capsazepine and capsaicin; capsazepine.
To examine renal sensory nerve function, renal CGRP release after stimulation of the renal sensory nerves with capsaicin was examined.

[8] = tested on: WT and TRPV1−/− hearts; experiment: OLDA-induced CGRP and SP release from hearts (radioimmunoassay); set-up: species or system mouse
[9] = tested on: Wistar rats fed a NS or HS diet for 3 weeks; experiment: MAP and HR responses to bolus CAPZ in conscious rats (3-week diet); type: in vivo, rat; conditions: for peak increase in MAP: CAPZ 3 mg/kg bolus, conscious
Excerpt: Animal Preparation: Experiments were approved by the institutional Animals Care and Use Committee. Male Wistar rats (6 weeks old, Charles River Laboratory, Wilmington, Mass.) were housed in a temperature-controlled room with a 12:12-hour light/dark cycle. Rats were selected randomly to receive either a normal-sodium diet (NS, 0.4% of Na^+ by weight) or a HS diet (HS, 4% of Na^+ by weight) for 3 weeks. The diets were purchased from Harlan Teklad. All rats drank water ad libitum throughout the experiment.
Surgical Preparation The rats were anesthetized with ketamine and xylazine (80 and 4 mg/kg ip, respectively) for implantation of artery and vein catheters. The left jugular vein and carotid artery were cannulated for administration of drugs or for monitoring of mean arterial pressure (MAP) and heart rate (HR) with a Statham 231D pressure transducer coupled to a Gould 2400s recorder (Gould Instruments, Dayton, Ohio, USA). For conscious animal experiments, catheters were routed subcutaneously and exteriorized between the scapulae. Rats were quietly brought to home cages 3 hours after surgery, and MAP and HR were continuously recorded. Regular room light was turned on during experiments. The rats were allowed to acclimate to their surroundings for 15-30 minutes in their cages, i.e., until which time they ceased exploring the new environment and their blood pressures stabilized. Baseline MAP and HR were recorded for 15 minutes before administration of drugs (Supowit et al., 1997; Wang and Wang, 2004).
Protocol 1: To determine whether the TRPV1 is tonically activated during HS intake, rats fed a NS or HS diet were randomly assigned to 2 groups for intravenous injection of CAPZ (3 mg/kg), a selective TRPV1 antagonist, in conscious states.

effect on PC protection assessed by LDH levels after I/R in WT hearts [1]: abolished
SMILES: Oc1cc2c(cc1O)CN(C(=S)NCCc1ccc(Cl)cc1)CCC2 [CAPZ, N-[2-(4-Chlorophenyl)ethyl]-1,3,4,5-tetrahydro-7,8-dihydroxy-2H-2-benzazepine-2-carbothioamide]
effect on capsaicin actions on plasma CGRP and MAP ([2]; rat, in vivo): blocked | pro-hypertensive effects of salt ([2]; rats fed a high salt diet): unmasked | duration of transient elevation in blood pressure after injection [3]: ≤ 7 min | DSR induced-depressor effect after antagonist [4]: 8.5±2.5 mmHg | effect on protective effect of OLDA in WT hearts [5]: abolished | CGRP release from hearts subjected to PC [6]: attenuated | SP release from hearts subjected to PC [6]: attenuated | effect on capsaicin-stimulated CGRP release [7]: blocked | effect on OLDA-increased CGRP and SP release in WT hearts [8]: blocked | peak increase in MAP ([9]; HS 3 weeks): 13±3 mmHg | peak increase in MAP ([9]; NS 3 weeks): 4±2 mmHg | duration of pressor action ([9]; CAPZ 3 mg/kg, HS): 6 to 7 min | time to peak MAP elevation after injection ([9]; CAPZ 3 mg/kg, HS): ≤ 2 min | change in HR ([9]; CAPZ 3 mg/kg, NS or HS): no significant change
